“And” between values parts separate entries of the source, which are not always exact repeats. Identical values can stand only once. Like-named read-outs stand apart in the source and are kept apart here.
Assays:
[1] = MTT cytotoxicity assay on differentiated SH-SY5Y cells; type: cell-based, human; settings: human, 0.05–5 mM; for CC50 at 24 h: differentiated SH-SY5Y, MTT reduction assay, Hill fit, read-out: LC50
Procedure: (§1) The SH–SY5Y cell line (DSMZ code: ACC 209) was supplied by the German Collection of Microorganisms and the Cell Culture GmbH (DSMZ) biobank and was cultured according to the supplier’s information. Cells were grown in DMEM:F12 (Dulbecco’s Modified Eagle’s Medium/F12), supplemented with 10% fetal bovine serum (FBS) and 1% antibiotic–antimycotic in a humidified atmosphere with 5% CO2 at 37 °C. Subculture was performed according to biobank instructions when the cultures reached 80–85% of confluence.
(§2) SH-SY5Y cells were trypsinized (trypsin/EDTA; 0.25%) and the cell suspension was seeded in 96-well plates at a density of 2 × 10^4 cells/well and incubated until reaching 80-85% confluence. Cells were differentiated to obtain a dopaminergic neuronal phenotype according to Ferreira et al. with slight modifications (Figure 10). To ensure reproducibility and optimal neuronal differentiation, cells were used between passages (15–25). Briefly, cells were seeded in complete DMEM:F12 medium containing 10 µM retinoic acid (RA) and 2.5% fetal bovine serum (FBS) and maintained for 4 days, with the medium changed on day 2. After this time, the medium was replaced by DMEM:F12 supplemented with 10 µM RA, 80 nM 12-O-tetradecanoylphorbol-13-acetate (TPA), and 2.5% FBS, and the cells were maintained for an additional 4 days (with the medium changed at day 6). The cytotoxicity assay was performed on day 8.
(§3) The SH-SY5Y cells’ viability was evaluated after exposure for 24 h to […]. The 3-(4,5-dimethylthiazol-2-yl) − 2,5-diphenyltetrazolium bromide (MTT) colorimetric assay was performed following the methodology described by Joana Silva et al.. The experimental dose–response results were fitted to the Hill’s sigmoidal non-linear regression model. For each cathinone, the LC50 values (cathinone concentration showing 50% lethality) and their confidence interval at the 95% confidence level ([CI]) were determined. The Hill slope, also known as the Hill coefficient, which describes the steepness of a dose–response curve, and the minimum observable adverse effect concentration (LOAEL) were also determined for all cathinones.

[2] = test system: differentiated SH-SY5Y cells; assay: as above; type: cell-based, human; settings: lowest observed adverse effect level, differentiated SH-SY5Y, 24 h, MTT
Procedure: as §1, §2, §3

[3] = molecular target: T1, Acetylcholinesterase (AChE, EC 3.1.1.7) (Electrophorus electricus, UniProt O42275); assay: Acetylcholinesterase inhibition, modified Ellman colorimetric method; type: biochemical; settings: for Hillslope: AChE inhibition dose–response curve; for LOAEL / IC50: Ellman assay; for IC50: 0.03–2 mM, Hill fit; for maximum inhibition of AChE among the tested concentrations: 0.03 to 2 mM
T1 construct: purchased Sigma-Aldrich
Procedure: Acetylcholinesterase (AChE, EC 3.1.1.7) enzymatic activity was assessed using a modified version of Ellman’s colorimetric method, as described by Falé et al.. In this assay, a mixture of 325 μL of 50 mM Tris-HCl buffer (pH 8), 100 μL of a cathinone solution, and 25 μL of AChE (0.1 U/mL in 50 mM Tris–HCl buffer pH 8) were incubated. After a 15 min incubation period, 75 μL of AChI (0.33 mg/mL) was added to 475 μL of DTNB (dithiobis (2-nitrobenzoic acid)) (1.2 mg/mL in Tris–HCl buffer (pH 8) containing 0.1 M NaCl and 0.02 M MgCl2). A control reaction, representing 100% activity, was performed using the same volume of water instead of the cathinone solution. The initial velocity of the enzymatic reaction was measured at 405 nm for 5 min, with all assays carried out in duplicate. The percentage of AChE activity inhibition for different concentrations of cathinones [0.03–2 mM] was determined as the ratio of the initial velocity in the cathinone presence to the initial velocity of the control reaction. Experimental results were fitted to Hill’s sigmoidal dose–response non-linear regression model to determine IC50 values (cathinone concentration showing 50% inhibition), along with their confidence interval at the 95% confidence level ([CI]). The Hill slope coefficients that provide the steepest value of the slope of the dose–response curve and the minimum observable adverse effect concentration (LOAEL) for all cathinones were also determined.

[4] = test system: SH-SY5Y cells; assay: Mitochondrial membrane potential (JC-1 probe); type: cell-based, human; settings: 6 h treatment at LC50, JC-1
Procedure: Mitochondrial membrane potential (MMP) was estimated by using the JC-1 fluorescent probe (Molecular Probes, Eugene, OR, USA) as described in Silva et al., 2022 [65]. The formation of JC-1 aggregates (excitation λ: 490 nm; emission λ: 590 nm) and monomers (excitation λ: 490 nm; emission λ: 530 nm) was measured for 30 min using a plate reader (Bio-Tek Synergy plate reader, Bedfordshire, UK). Changes in MMP were calculated as the ratio between JC-1 monomers and aggregates and expressed as a percentage of the control. An FCCP (2.5 µM) and oligomycin A (1 mg/mL) conjugate solution was used as the positive control. All data were obtained from at least three independent experiments (n = 3) and were presented as mean ± standard error of the mean (SEM).

T1 sequence (O42275 24-633): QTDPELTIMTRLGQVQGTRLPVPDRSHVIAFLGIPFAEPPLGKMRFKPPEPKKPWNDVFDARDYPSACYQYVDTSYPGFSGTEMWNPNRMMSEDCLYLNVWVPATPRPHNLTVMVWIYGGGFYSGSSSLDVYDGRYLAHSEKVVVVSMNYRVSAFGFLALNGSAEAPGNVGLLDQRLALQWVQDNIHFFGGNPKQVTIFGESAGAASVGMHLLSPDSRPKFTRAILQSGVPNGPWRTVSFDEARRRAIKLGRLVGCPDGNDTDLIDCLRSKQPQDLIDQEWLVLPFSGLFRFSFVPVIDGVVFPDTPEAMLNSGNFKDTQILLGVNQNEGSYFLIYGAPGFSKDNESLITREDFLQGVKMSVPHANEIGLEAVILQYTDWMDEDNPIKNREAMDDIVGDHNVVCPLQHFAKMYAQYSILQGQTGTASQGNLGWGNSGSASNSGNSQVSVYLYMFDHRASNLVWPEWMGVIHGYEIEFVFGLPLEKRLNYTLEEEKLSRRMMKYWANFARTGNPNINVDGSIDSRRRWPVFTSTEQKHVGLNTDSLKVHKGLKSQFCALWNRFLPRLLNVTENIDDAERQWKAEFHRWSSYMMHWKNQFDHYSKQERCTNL

| Structure (SMILES) | CC50 at 24 h [1] | LOAEL [2] | Hillslope [3] | LOAEL ([3]; AChE inhibition) | IC50 ([3]; IC50, AChE inhibition) | MMP depolarization [4] | Emax at 24 h ([1]; MTT, read-out: maximum response (cytotoxicity)) | inhibition at 2000 µM ([3]; highest tested concentration of 2 mM) | IC50 ([3]; AChE inhibition, read-out: IC50) | maximum inhibition of AChE among the tested concentrations [3] |
| --- | --- | --- | --- | --- | --- | --- | --- | --- | --- | --- |
| CNC(C)C(=O)c1cccc(Cl)c1 (racemic) [3-CMC (2), (R,S)-1-(3-chlorophenyl)-2-(methylamino)propan-1-one] | 2300 µM | 1 mM and 1.0 mM | 3.7 | 0.500 mM | 800 µM |  |  |  |  |  |
| CCN(CC)C(C)C(=O)c1ccc(Cl)cc1 (racemic) [4-Cl-DEC (16), (R,S)-1-(4-chlorophenyl)-2-(diethylamino)propan-1-one] | 1000 µM | 1 mM and 1.0 mM | 0.8 | 0.063 mM | 100 µM |  |  |  |  |  |
| CCNC(C)C(=O)c1ccc(Cl)cc1 (racemic) [4-CEC (6), (R,S)-1-(4-chlorophenyl)-2-(ethylamino)propan-1-one] | 1300 µM | 0.1 mM | 1.2 | 0.250 mM | 1200 µM |  |  |  |  |  |
| CCCCNC(C)C(=O)c1ccc(Cl)cc1 (racemic) [4-CBC (8), (R,S)-2-(butylamino)-1-(4-chlorophenyl)propan-1-one] | 600 µM | 0.5 mM | 5.1 | 0.100 mM | 1300 µM | more pronounced MMP depolarization than the other cathinones |  |  |  |  |
| CCNC(C)C(=O)c1cccc(Cl)c1 (racemic) [3-CEC (5), (R,S)-1-(3-chlorophenyl)-2-(ethylamino)propan-1-one] | 1300 µM | 0.5 mM | 1.3 | 0.250 mM | 800 µM |  |  |  |  |  |
| CNC(C)C(=O)c1ccc(C)cc1 (centres unmarked) [Mephedrone (M), Mephedrone, reference compound] | 2100 µM | 0.5 mM | 8.6 | 0.750 mM | 800 µM |  | 73% |  |  |  |
| CC(C(=O)c1cccc(Cl)c1)N(C)C (racemic) [3-CDC (13), (R,S)-1-(3-chlorophenyl)-2-(dimethylamino)propan-1-one] | 1800 µM | 1 mM and 1.0 mM | 1.2 | 0.250 mM | 900 µM |  |  |  |  |  |
| CNC(C)C(=O)c1ccc(Cl)cc1 (racemic) [4-CMC (3), (R,S)-1-(4-chlorophenyl)-2-(methylamino)propan-1-one] | 1300 µM | 0.1 mM | 1.5 | 0.250 mM | ~2000 µM |  |  | 47% |  |  |
| CC(C(=O)c1ccc(Cl)cc1)N(C)C (racemic) [4-CDC (14), (R,S)-1-(4-chlorophenyl)-2-(dimethylamino)propan-1-one] | 1500 µM | 1 mM and 1.0 mM | 2.9 | 0.500 mM and 0.50 mM | 700 µM |  |  |  |  |  |
| CC(C)NC(C)C(=O)c1ccc(Cl)cc1 (racemic) [4-CIC (18), (R,S)-1-(4-chlorophenyl)-2-(isopropylamino)propan-1-one] | 1400 µM | 1 mM and 1.0 mM | 2.0 | 0.375 mM | 1100 µM |  |  |  |  |  |
| CC(NC(C)(C)C)C(=O)c1cccc(Cl)c1 (racemic) [3-Cl-TBC (19), (R,S)-2-(tert-butylamino)-1-(3-chlorophenyl)propan-1-one] | 1000 µM | 0.5 mM | 0.9 | 0.250 mM |  |  |  |  | 1000 µM |  |
| CC(C(=O)c1ccccc1Cl)N(C)C (racemic) [2-CDC (12), (R,S)-1-(2-chlorophenyl)-2-(dimethylamino)propan-1-one] | 1300 µM | 1 mM and 1.0 mM | 2.5 | 0.250 mM | 700 µM |  |  |  |  |  |
| CCNC(C)C(=O)c1ccccc1Cl (racemic) [2-CEC (4), (R,S)-1-(2-chlorophenyl)-2-(ethylamino)propan-1-one] | 1600 µM | 0.5 mM | 4.3 | 0.500 mM | 600 µM |  |  |  |  | 85% |
| CC(C)NC(C)C(=O)c1cccc(Cl)c1 (racemic) [3-CIC (17), (R,S)-1-(3-chlorophenyl)-2-(isopropylamino)propan-1-one] | 1600 µM | 1 mM and 1.0 mM | 0.8 | 0.063 mM | 200 µM |  |  |  |  |  |
| CCCCNC(C)C(=O)c1cccc(Cl)c1 (racemic) [3-CBC (7), (R,S)-2-(butylamino)-1-(3-chlorophenyl)propan-1-one] | 700 µM | 0.1 mM | 1.4 | 0.125 mM | 400 µM | more pronounced MMP depolarization than the other cathinones |  |  |  |  |
| CNC(C)C(=O)c1ccccc1Cl (racemic) [2-CMC (1), (R,S)-1-(2-chlorophenyl)-2-(methylamino)propan-1-one] | 1700 µM | 1 mM and 1.0 mM | 2.5 | 0.250 mM | 700 µM |  |  |  |  |  |
| CC(C(=O)c1cccc(Cl)c1)N1CCCC1 (racemic) [3-Cl-PPP (10), (R,S)-1-(3-chlorophenyl)-2-(pyrrolidine-1-yl)propan-1-one] | 2500 µM | 0.1 mM | 1.8 | 0.125 mM | 400 µM |  |  |  |  |  |
| CC(C(=O)c1ccc(Cl)cc1)N1CCCC1 (racemic) [4-Cl-PPP (11), (R,S)-1-(4-chlorophenyl)-2-(pyrrolidine-1-yl)propan-1-one] | 1800 µM | 0.5 mM | 1.1 | 0.250 mM | 500 µM |  |  |  |  |  |
| CC(C(=O)c1ccccc1Cl)N1CCCC1 (racemic) [2-Cl-PPP (9), (R,S)-1-(2-chlorophenyl)-2-(pyrrolidine-1-yl)propan-1-one] | 1600 µM | 0.5 mM | 1.5 | 0.125 mM | 300 µM |  |  |  |  | 81% |

From paper PMC12027149 (International Journal of Molecular Sciences, 2025)
